Test results: article PMC9763333, “In vitro characterization of immune modulating drug-eluting immunobeads towards transarterial embolization in cancer” (Scientific Reports, 2022)
“And” between values parts separate entries of the source, which are not always exact repeats. Equal values may be shown once. “Also recorded” adds a separate entry of the source. Read-outs that look alike come from different tables or passages of the source.

What was measured:
Type in all cases: physicochemical
[1] = Drug release from DC Bead LUMI in saline; settings: for release in saline from DC Bead LUMI after multiple washes in deionized water: single replicates
Method: […] Briefly, drug-loaded DC Bead LUMI or LC Bead (62.5 µL) were placed in vessels with 50 mL of saline ([…], pH 7.4) and were agitated with upright rocking motion at a set maximum rocking speed of 10 (70 rpm) for 144 h at 37 °C using Ward's® Rotating Mixer. At scheduled time intervals identical to the loading time points, 1 mL of release media was withdrawn and used for drug quantification. To maintain 50 mL total elution volume, 1 mL of fresh saline pre heated to 37 °C was replaced at each timepoint. […] 2.4. The cumulative amount of drug released at each time point was calculated by multiplying the concentration of each sample aliquot by the total volume (50 mL) of release media and adding the sum of the amount of drug removed for sampling at prior time points. […] The 50 mL volume was chosen to ensure infinite sink conditions where the maximum possible concentration of eluted drug would be at least 10 times more dilute than the maximum solubility. This ensures the rate of release is not affected by solution concentration but is only a function of interactions of the bead, drug, and saline.

[2] = pKa measurement by triple titration in methanol–water co-solvent with Yasuda-Shedlovsky extrapolation; settings: for pKa: methanol–water co-solvent, aqueous value by Yasuda-Shedlovsky extrapolation; for psKa1 / psKa2: methanol–water
Method: pKa measurements were performed by Pion Inc, UK Ltd using known methods as previously reported[47]–[50] or calculated by using software MoKa (Molecular Discovery, Borehamwood, Hertfordshire, UK, https://www.moldiscovery.com/software/moka/#references) or directly obtained from the literature. For GARD and DSR 6434, a triple titration was carried out under methanol–water co-solvent conditions from pH 2.0–12.0 at concentrations of 2.3–1.3 mM (the methanol mixing ratio varied from 49.0 to 28.9% w/w) and 1.5–0.9 mM (the methanol mixing ratio varied from 49.6 to 29.1% w/w), respectively.

[3] = Drug loading into DC Bead LUMI
Method: DC Bead LUMI was analyzed for its elemental composition by MEDAC Inc. […] Drug loading was performed in triplicate as previously reported[45] with slight modifications. […] Washing of beads is often a critical step in drug release studies as any drug left unbound to the beads affects the release profile and exaggerates the early burst release. […] However, washing was discontinued for TLR drugs as drug was continually observed even after multiple washes. […] The amount of drug loaded at the specified time points was calculated by subtracting the amount of drug remaining from the initial amount of drug in the loading solution and the cumulative amount of drug withdrawn for sampling. The maximum drug loaded in the beads was calculated once no further change in the concentration in the loading solution could be measured and before washing the beads. The relative percent drug loaded was defined as the maximum amount of drug loaded as a percent of the amount of SO3^- ions available in the beads on a molar basis using the following formula and the results are presented as the mean ± SD.

[4] = Washing of drug-loaded beads with deionized water and microscopic appearance
Method: Drug loading was performed in triplicate as previously reported[45] with slight modifications. […] Washing of beads is often a critical step in drug release studies as any drug left unbound to the beads affects the release profile and exaggerates the early burst release. […] However, washing was discontinued for TLR drugs as drug was continually observed even after multiple washes. […] The amount of drug loaded at the specified time points was calculated by subtracting the amount of drug remaining from the initial amount of drug in the loading solution and the cumulative amount of drug withdrawn for sampling. The maximum drug loaded in the beads was calculated once no further change in the concentration in the loading solution could be measured and before washing the beads. The relative percent drug loaded was defined as the maximum amount of drug loaded as a percent of the amount of SO3^- ions available in the beads on a molar basis using the following formula and the results are presented as the mean ± SD.

[5] = Drug solubilization by salt formation in acid; settings: HPLC, two peaks observed
Method: The base form of each drug was suspended in deionized water and titrated with 0.1 N hydrochloric acid (Fisher Scientific, Hampton, NH) while stirring until all the base was solubilized and the volume adjusted to a final concentration of 2.5 mg/mL. The resulting solution was frozen, then lyophilized to yield solid drug-hydrochloride salt or used in its solubilized form for loading into DC Bead LUMI. […] Doxorubicin.HCl was readily solubilized and used without modification. […] A ZORBAX Eclipse Plus C8 reversed-phase column (Agilent) and UV detector at wavelength of 230 nm were used for GS-9620 analysis. The decomposition product of GS-9620 was analyzed with reversed phase high-performance liquid chromatography (Rp-HPLC) and LC/MS.

CCNCc1nc2c(N)nc3ccccc3c2n1CC(C)(C)O [GARD, gardiquimod]
release in saline from DC Bead LUMI after multiple washes in deionized water ([1]; 5 min): 13.8548 mg/mL of beads and 16.8316 mg/mL of beads and 16.696 mg/mL of beads | release in saline from DC Bead LUMI after multiple washes in deionized water ([1]; 15 min): 6.978 mg/mL of beads and 10.4756 mg/mL of beads and 7.4826 mg/mL of beads | release in saline from DC Bead LUMI after multiple washes in deionized water ([1]; 30 min): 11.5876 mg/mL of beads and 14.6655 mg/mL of beads and 10.6769 mg/mL of beads | release in saline from DC Bead LUMI after multiple washes in deionized water ([1]; 45 min): 12.1501 mg/mL of beads and 14.1614 mg/mL of beads and 16.9158 mg/mL of beads | release in saline from DC Bead LUMI after multiple washes in deionized water ([1]; 60 min): 12.3872 mg/mL of beads and 11.2006 mg/mL of beads and 10.7852 mg/mL of beads | release in saline from DC Bead LUMI after multiple washes in deionized water ([1]; 120 min): 6.495 mg/mL of beads and 18.2582 mg/mL of beads and 8.614 mg/mL of beads | release in saline from DC Bead LUMI after multiple washes in deionized water ([1]; 180 min): 13.4173 mg/mL of beads and 9.599 mg/mL of beads and 8.837 mg/mL of beads | release in saline from DC Bead LUMI after multiple washes in deionized water ([1]; 240 min): 11.2341 mg/mL of beads and 19.3333 mg/mL of beads and 19.2869 mg/mL of beads | release in saline from DC Bead LUMI after multiple washes in deionized water ([1]; 300 min): 11.4298 mg/mL of beads and 19.0264 mg/mL of beads and 20.0563 mg/mL of beads | release in saline from DC Bead LUMI after multiple washes in deionized water ([1]; 360 min): 14.8464 mg/mL of beads and 16.7671 mg/mL of beads and 17.7148 mg/mL of beads | release in saline from DC Bead LUMI after multiple washes in deionized water ([1]; 420 min): 10.7872 mg/mL of beads and 18.9583 mg/mL of beads and 16.16 mg/mL of beads | release in saline from DC Bead LUMI after multiple washes in deionized water ([1]; 480 min): 14.0597 mg/mL of beads and 15.9257 mg/mL of beads and 20.8469 mg/mL of beads | release in saline from DC Bead LUMI after multiple washes in deionized water ([1]; 1440 min): 16.384 mg/mL of beads and 22.102 mg/mL of beads and 14.1626 mg/mL of beads | release in saline from DC Bead LUMI after multiple washes in deionized water ([1]; 2880 min): 17.882 mg/mL of beads and 19.297 mg/mL of beads and 22.6822 mg/mL of beads | release in saline from DC Bead LUMI after multiple washes in deionized water ([1]; 4320 min): 17.16 mg/mL of beads and 21.3309 mg/mL of beads and 22.7224 mg/mL of beads | release in saline from DC Bead LUMI after multiple washes in deionized water ([1]; 8640 min): 16.9125 mg/mL of beads and 21.9345 mg/mL of beads and 17.7447 mg/mL of beads | release behaviour in saline ([1]; DC Bead LUMI): rapid release | pKa ([2]; read-out: pKa (first, measured)): 7.02 | pKa ([2]; read-out: pKa (second, measured)): 8.02 | psKa1 ([2]; dielectric constant 56.8): 6.81 | psKa2 ([2]; dielectric constant 56.8): 7.83 | psKa1 ([2]; dielectric constant 61.6): 6.89 | psKa2 ([2]; dielectric constant 61.6): 7.88 | psKa1 ([2]; dielectric constant 66): 6.92 | psKa2 ([2]; dielectric constant 66): 7.94 | Relative percent drug loaded in DC Bead LUMI over time ([3]; 5 min, single replicates): 55.2766% and 60.9514% and 46.1831% | Relative percent drug loaded in DC Bead LUMI over time ([3]; 15 min, single replicates): 43.0802% and 66.0616% and 55.143% | Relative percent drug loaded in DC Bead LUMI over time ([3]; 30 min, single replicates): 48.003% and 64.9413% and 48.1153% | Relative percent drug loaded in DC Bead LUMI over time ([3]; 45 min, single replicates): 42.5221% and 54.7578% and 59.077% | Relative percent drug loaded in DC Bead LUMI over time ([3]; 60 min, single replicates): 49.9393% and 67.8727% and 53.1769% | Relative percent drug loaded in DC Bead LUMI over time ([3]; 120 min, single replicates): 71.3739% and 70.6276% and 67.3547% | Relative percent drug loaded in DC Bead LUMI over time ([3]; 180 min, single replicates): 60.3259% and 72.9711% and 72.9791% | Relative percent drug loaded in DC Bead LUMI over time ([3]; 240 min, single replicates): 61.2934% and 72.504% and 74.4803% | Relative percent drug loaded in DC Bead LUMI over time ([3]; 300 min, single replicates): 61.9583% and 65.0576% and 73.7822% | Relative percent drug loaded in DC Bead LUMI over time ([3]; 360 min, single replicates): 62.1239% and 73.4051% and 73.7491% | Relative percent drug loaded in DC Bead LUMI over time ([3]; 420 min, single replicates): 57.6019% and 70.5665% and 69.0951% | Relative percent drug loaded in DC Bead LUMI over time ([3]; 480 min, single replicates): 60.233% and 70.8296% and 71.2658% | Relative percent drug loaded in DC Bead LUMI over time ([3]; 1440 min, single replicates): 61.7405% and 70.3053% and 72.3473% | Relative percent drug loaded in DC Bead LUMI over time ([3]; 2880 min, single replicates): 58.2466% and 69.7502% and 67.5798% | Relative percent drug loaded in DC Bead LUMI over time ([3]; 4320 min, single replicates): 62.5088% and 74.175% and 74.3147% | Relative percent drug loaded in DC Bead LUMI over time ([3]; 8640 min, single replicates): 62.7357% and 73.7536% and 73.1477% | loading behaviour ([3]; DC Bead LUMI): Fast loading | Relative percent drug loaded (maximum, percent of SO3− available on a molar basis) ([3]; DC Bead LUMI, mean (n = 3)): 73% and 73.34% | equivalent of drug loaded to sulfonated bead ([3]; DC Bead LUMI, mean ± SD): 0.21 ± 0.00 mM drug/ml beads | Maximum drug loaded ([3]; DC Bead LUMI, mean ± SD, n = 3, base form except Dox (salt form)): 65.97 ± 1.54 mg drug/ml beads | Maximum drug loaded (Triplicate), % ([3]; DC Bead LUMI, single replicates): 71.3739% and 74.175% and 74.4803% | Drug: sulfonate ([3]; molar ratio at maximum loading, DC Bead LUMI): 0.733 | Theoretical maximum loading level based on SO3− contents ([3]; per mL DC Bead LUMI, assuming 1:1 drug to sulfonate): 89.95 mg | removal of drug from beads by repeated washing with deionized water ([4]; DC Bead LUMI): partially removed | aggregation of drug during washing / elution ([4]; deionized water and saline, microscopy): absence of aggregated

CCCCOc1nc(N)c2c(n1)N(Cc1cccc(CN3CCCC3)c1)CC(=O)N2 [GS-9620]
stability in the solubilizing conditions [5]: partially decomposed; also recorded: not stable
